Numbers after ± are expanded uncertainties.
What was measured:
[1] = 300.15 K; 101.33 kPa; Liquid; Pycnometric method
[2] = relative permittivity at zero frequency (dimensionless); details: 300.15 K; 101.33 kPa; Liquid; impedance analyzer
[3] = refractive index (Na D-line) (dimensionless); details: 300.15 K; 101.33 kPa; Liquid; Standard Abbe refractometry

| mass density [1] | relative permittivity at zero frequency [2] | refractive index [3] | SMILES |
| --- | --- | --- | --- |
| 798.5 ± 0.4 kg/m3 | 20.678 ± 0.001 | 1.391 ± 0.001 | CCCO [propan-1-ol] |
| 779.2 ± 0.4 kg/m3 | 18.562 ± 0.001 | 1.383 ± 0.001 | CC(C)O [propan-2-ol] |

| SMILES | mass density [1] | relative permittivity at zero frequency [2] | refractive index [3] |
| --- | --- | --- | --- |
| CNc1ccccc1 [N-methylaniline] | 979.8 ± 0.6 kg/m3 | 5.878 ± 0.001 | 1.566 ± 0.001 |
